Source: patent US20080293777A1, “Weight Loss Treatment” (priority 2007, published 2008)
Structures can show the parent of a compound that is named as a salt.

How the values were obtained:
[1] = biological target: T1, PTP-1B (wild type, residues 1-298) (Homo sapiens, UniProt P18031); test: PTP-1B activity assay with pNPP, with or without DTT added afterwards; type: biochemical; conditions: FIG. 1
T1 construct: PTP-1B (wild type, residues 1-298) was exchanged into DFTN buffer
T1 sequence (P18031 1-298): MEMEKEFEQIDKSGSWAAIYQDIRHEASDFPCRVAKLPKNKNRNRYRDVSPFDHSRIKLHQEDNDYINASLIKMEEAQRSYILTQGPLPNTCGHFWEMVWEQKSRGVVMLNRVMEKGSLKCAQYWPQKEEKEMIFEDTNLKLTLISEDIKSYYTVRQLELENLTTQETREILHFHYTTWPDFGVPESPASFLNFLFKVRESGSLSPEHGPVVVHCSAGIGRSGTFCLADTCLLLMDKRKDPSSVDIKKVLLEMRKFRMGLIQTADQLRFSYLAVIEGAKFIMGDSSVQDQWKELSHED
Protocol: (§1) PTP-1B (wild type, residues 1-298) was exchanged into DFTN buffer (DTT-free, 50 mM Tris, 100 mM NaCl, 1 mM EDTA, pH 7.4) using a NAP-5 column, and the concentration of protein was quantified using the absorbance at 280 nm. Purity of the PTP-1B was evidenced by a single mass peak (mass=34,672 amu in a mass spectrometer).
(§2) To 99 mL solution of 1.0 μM PTP-1B in buffer was added 1 mL of Compound 1 in DMSO […]. After 15 minutes, each Compound 1-treated PTP-1B sample was evaluated by mass spectrometry (QSTAR protein mass spectrometer with Baynesian protein mass deconvolution). Concurrently, two 10 μL aliquots were removed. One aliquot was diluted with 10 μL DFTN buffer while the other aliquot was diluted with 10 μL TN buffer (1 mM DTT, 50 mM Tris, 100 mM NaCl, 1 mM EDTA, pH 7.4). After 15 minutes, the samples were diluted with 90 μL pNPP solution (5.6 mM pNPP in DFTN) and the A405 of the solution was monitored for 5 minutes.

[2] = biological target: T1, PTP-1B (wild type, residues 1-298); test: Mass spectrometry of PTP-1B treated with Compound 1; type: binding; conditions: 1 equivalent of Compound 1 for 15 minutes, FIG. 2
Protocol: as §1, §2

[3] = Weight change in leptin-deficient (ob/ob) mice; type: in vivo; conditions: for weight change: PO BID for 7 days, FIG. 3
Protocol: To investigate Compound 1's effect on various metabolic disorders including diabetes and obesity, in vivo studies were conducted in the ob/ob obese mouse model and in the db/db diabetic model. The ob/ob mouse is deficient in the hormone leptin, a 16 kDa protein that is secreted by fat cells and plays a key role in regulating energy intake and energy expenditure, including the regulation of appetite and metabolism. […] Compound 1 was tested in these metabolic disease models along with two anti-diabetic drugs that also affect body weight, metformin hydrochloride and rosiglitazone maleate.
Male BKS.Cg-m+/+Leprdb/J (˜5 weeks of age) and B6.V-Lepob/J mice (˜8 weeks of age) were used for in vivo efficacy studies. Mice were housed 4 per cage and acclimated for 10 days prior to the start of the study. […] Mice were weighed each morning just prior to dosing. Mice were fasted overnight between study day 1 and 2 and blood glucose was measured in the morning of day 2 using a glucometer and blood from a tail nick. Food was returned to the mice ad libitum and the mice were again fasted overnight between study day 3 and 4, 5 and 6, and 7 and 8.

[4] = cited from earlier work
[5] = Weight change in db/db mice (mutation mapped to leptin receptor); type: in vivo; conditions: FIG. 4
Protocol: To investigate Compound 1's effect on various metabolic disorders including diabetes and obesity, in vivo studies were conducted in the ob/ob obese mouse model and in the db/db diabetic model. The ob/ob mouse is deficient in the hormone leptin, a 16 kDa protein that is secreted by fat cells and plays a key role in regulating energy intake and energy expenditure, including the regulation of appetite and metabolism. Leptin-deficient mice are severely obese and develop diabetes but revert to normal weight upon leptin administration. In the second model, the mice have a genetic mutation mapped to the leptin receptor (db/db) and at the time of the experiment were moderately overweight. Compound 1 was tested in these metabolic disease models along with two anti-diabetic drugs that also affect body weight, metformin hydrochloride and rosiglitazone maleate.
Male BKS.Cg-m+/+Leprdb/J (˜5 weeks of age) and B6.V-Lepob/J mice (˜8 weeks of age) were used for in vivo efficacy studies. Mice were housed 4 per cage and acclimated for 10 days prior to the start of the study. […] Mice were fasted overnight between study day 1 and 2 and blood glucose was measured in the morning of day 2 using a glucometer and blood from a tail nick. […]

Structure (SMILES)	relative activity of PTP-1B ([1]; 0-2 equivalents of Compound 1, 15 minutes)	reversibility of covalent inhibition of PTP-1B ([1]; upon addition of a reducing agent such as DTT)	covalent modification of PTP-1B (mass spectrum) [2]	difference in weight loss between doses ([3]; 20 mg/kg vs 100 mg/kg Compound 1 dosed orally BID)	weight change [3]	cell permeability ([4]; data from clinical trials)	bioavailability of the selenium moiety ([4]; human, in vivo)	oral bioavailability ([4]; humans, clinical trials)	tolerability ([4]; humans, clinical trials)	toxicity ([4]; up to 500 mg/day oral dose in humans)	statistical significance of weight gains [5]
O=c1c2ccccc2[se]n1-c1ccccc1 [Compound 1, 2-phenyl-1,2-benzisoselenazol-3(2H)-one]	inhibits the activity	reversible	covalently modifies	No significant difference in weight loss	promoted weight loss	cell-permeable	not bioavailable	orally bioavailable	well tolerated	no toxicity was observed	–
CN(C)C(=N)N=C(N)N [metformin, metformin hydrochloride, reference compound]	–	–	–	–	promoted weight loss	–	–	–	–	–	–
CN(CCOc1ccc(CC2SC(=O)NC2=O)cc1)c1ccccn1.O=C(O)/C=C\C(=O)O (stereo not shown) [rosiglitazone, rosiglitazone maleate, reference compound]	–	–	–	–	gained weight	–	–	–	–	–	except for the rosiglitazone-treated mice, the weight gains were not statistically significant
